Measurements taken from US11903945B2, “Methods of treating antipsychotic-induced weight gain with miricorilant” (Corcept Therapeutics Incorporated, priority 2019, dated 2024).
Where “and” joins values, the source holds several entries; their conditions need not be identical. Equal entries are not always repeated. Entries after “also recorded” stand apart in the source; their conditions may differ. Where two headings read alike, the source gives them in different places.

Key:
[1] = patients, cited from earlier work; for Mean body weight increase over a period of ten weeks: Allison et al., Am J. Psychiatry 1999
[2] = test system: tyrosine aminotransferase (TAT) in HepG2 cells; conditions: HepG2 human liver hepatocellular carcinoma cell line; cited from earlier work
[3] = type: in vivo; conditions: female rats; for Study day from which body weight reduction became statistically significant: treatment started Day 35
Procedure: On day 35, the rodents were randomized to 4 different interventions and remained on study until day 57. The four intervention groups were: OLZ+vehicle daily by oral gavage; OLZ+2 mg/kg/day miricorilant once daily; OLZ+1 mg/kg miricorilant twice daily; and OLZ+10 mg/kg/day miricorilant once daily. A fifth group, a vehicle-only group (n=12), was included as a control for the entirety of the 57 days.
Starting at week 6, either miricorilant (MIRI, 3 dosing regimens) or vehicle 2 was administered orally. […] The vehicle-only group was included as a control for the 8-week duration of the study. Efficacy was assessed based on body weight, food consumption, mortality, and clinical observations.
The articles were stored refrigerated between dosing.
Body weights were measured and recorded three times weekly during the acclimation period, every other day beginning on Day −1, and prior to termination on Day 57. Food consumption was measured and recorded daily beginning on Day −14. Body weights and food consumption were measured within 2 hours of the initial time on Day −1. Any changes in bodyweight greater than 15 grams (g) and changes in food consumption greater than 5 g were verified. Food jars were weighed twice for precision during food jar changes.

progesterone receptor = molecular target: T1, progesterone receptor (Homo sapiens, UniProt P06401); conditions: cited from earlier work
T1 sequence (P06401 1-933): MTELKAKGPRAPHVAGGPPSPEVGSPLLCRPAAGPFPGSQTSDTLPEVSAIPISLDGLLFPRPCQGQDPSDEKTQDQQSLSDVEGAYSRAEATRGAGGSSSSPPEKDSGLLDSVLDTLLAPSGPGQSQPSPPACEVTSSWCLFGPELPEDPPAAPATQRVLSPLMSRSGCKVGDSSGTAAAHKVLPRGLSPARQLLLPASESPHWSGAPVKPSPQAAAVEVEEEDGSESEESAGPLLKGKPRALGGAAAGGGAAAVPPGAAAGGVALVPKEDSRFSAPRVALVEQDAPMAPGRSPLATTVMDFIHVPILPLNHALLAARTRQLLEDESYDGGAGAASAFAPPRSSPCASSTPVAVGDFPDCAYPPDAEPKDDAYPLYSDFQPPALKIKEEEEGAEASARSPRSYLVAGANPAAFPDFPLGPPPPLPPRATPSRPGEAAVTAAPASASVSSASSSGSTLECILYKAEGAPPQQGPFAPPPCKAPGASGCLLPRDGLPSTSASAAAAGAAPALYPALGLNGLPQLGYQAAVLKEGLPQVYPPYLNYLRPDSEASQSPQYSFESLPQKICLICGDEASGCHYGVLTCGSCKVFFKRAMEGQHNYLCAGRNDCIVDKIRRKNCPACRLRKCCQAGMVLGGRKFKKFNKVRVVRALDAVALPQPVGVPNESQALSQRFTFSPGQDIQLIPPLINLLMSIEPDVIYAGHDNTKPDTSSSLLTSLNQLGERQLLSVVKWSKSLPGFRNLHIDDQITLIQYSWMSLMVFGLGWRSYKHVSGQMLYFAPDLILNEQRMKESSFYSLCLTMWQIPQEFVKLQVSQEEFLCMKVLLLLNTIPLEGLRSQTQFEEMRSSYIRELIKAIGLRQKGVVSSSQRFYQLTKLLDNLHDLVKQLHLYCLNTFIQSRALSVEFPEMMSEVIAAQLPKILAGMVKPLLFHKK

[4] = for Triglycerides increase from baseline on Day 8 / Triglycerides increase from baseline on Day 15: listed as miricorilant = MIRI 600 mg/day + OLZ, unit given in Table 1, not in Table 2; for Body weight increase from baseline, percent of baseline, day 8 / Body weight increase from baseline, percent of baseline, day 15: from Table 2 with Table 1 baselines
Procedure: The dose level tested in our Phase 1b trial was 600 mg/day.
A 2-week, single-center, double-blind, randomized, placebo-controlled study was conducted in healthy male subjects age 18-55 years with BMI between 18-25 kg/m^2 and a stable body weight (defined as the Day 1 pre-dose body weight to be within ±2.0% of screening body weight). […] Food was freely available to all subjects during the study. The difference in mean change in absolute body weight after administration of OLZ+PBO compared to OLZ+MIRI was evaluated using a repeated measures model with imputation applied to missing values.
(HOMA2-IR values were calculated from fasted glucose and insulin levels using the HOMA (HOMA2 Model) Calculator® application programming interface for SAS (Oxford University 2013, available at the website www.dtu.ox.ac.uk/homacalculator)).

[5] = Hunt et al., Bioorg Med Chem Lett. 2012; cited from earlier work
[6] = olanzapine prescribing information; cited from earlier work
[7] = patients; doubled from 1.3±0.5 at baseline; Ebenbichler et al. 2003; cited from earlier work
[8] = Group 3: OLZ + miricorilant 1 mg/kg/dose BID
[9] = Group 4: OLZ + miricorilant 2 mg/kg/dose QD
[10] = Group 5: OLZ + miricorilant 10 mg/kg/dose QD
[11] = first week of miricorilant treatment with OLZ, P<0.01
[12] = (1 − (A/B)) × 100, MIRI 600 mg/day + OLZ vs placebo + OLZ, healthy male subjects
[13] = healthy male subjects, day not given, listed as miricorilant = olanzapine+miricorilant, listed as olanzapine = olanzapine+placebo
[14] = healthy male subjects, listed as miricorilant = MIRI 600 mg/day + OLZ 10 mg/day, listed as olanzapine = placebo + OLZ 10 mg/day
[15] = healthy male subjects, listed as olanzapine = placebo + OLZ 10 mg/day
[16] = healthy male subjects, listed as miricorilant = olanzapine+miricorilant, listed as olanzapine = olanzapine+placebo

## CN1CCN(C2=Nc3cc(Cl)ccc3Nc3ccccc32)CC1 [clozapine]
[1]
  Mean body weight increase over a period of ten weeks: 4.45 kg

## CC#C[C@]1(O)CC[C@H]2[C@@H]3CCC4=CC(=O)CCC4=C3[C@@H](c3ccc(N(C)C)cc3)C[C@@]21C [mifepristone]
[2]
  Effect on activity of tyrosine aminotransferase (TAT) in HepG2 cells: decreases

## O=c1[nH]c(=O)c(Cc2cccc(C(F)(F)F)c2)c([C@H]2CC[C@H](c3ccccc3)CC2)[nH]1 [miricorilant, (E)-6-(4-Phenylcyclohexyl)-5-(3-trifluoromethylbenzyl)-1H-pyrimidine-2,4-dione]
[3]; Group 3: 1 mg/kg/dose BID
  Study day from which body weight reduction became statistically significant: 36
[3]; [8]
  Body weight reduction at Day 57 vs olanzapine control Group 2 ([…] g): 13%
  Least Squares (LS) mean body weight at Day 57: 268 g
[3]; Group 3: OLZ + miricorilant 1 mg/kg/dose BID oral, Days 35-57
  Group mean body weight at Day 57: 269 g
[3]; Group 4: 2 mg/kg/dose QD
  Study day from which body weight reduction became statistically significant: 38
[3]; [9]
  Body weight reduction at Day 57 vs olanzapine control Group 2 ([…] g): 12%
  Least Squares (LS) mean body weight at Day 57: 272 g
  Loss compared with basal body weight (vehicle-only control) at the end of the study: no significant loss; also recorded: no reduction
[3]; Group 4: OLZ + miricorilant 2 mg/kg/dose QD oral, Days 35-57
  Group mean body weight at Day 57: 272 g
[3]; Group 5: 10 mg/kg/dose QD
  Study day from which body weight reduction became statistically significant: 36
[3]; [10]
  Body weight reduction at Day 57 vs olanzapine control Group 2 ([…] g): 17%
  Least Squares (LS) mean body weight at Day 57: 259 g
[3]; Group 5: OLZ + miricorilant 10 mg/kg/dose QD oral, Days 35-57
  Group mean body weight at Day 57: 258 g
[3]; all three miricorilant dose regimens with OLZ
  Food consumption by the end of the study: returned to vehicle-only levels
[3]; days 35-57, all three miricorilant regimens with OLZ, p<0.05
  Decrease in weight compared to the OLZ+vehicle group: 12-17%
[3]; [11]
  Food consumption lower compared to olanzapine-only animals: 16%-23%
  Food consumption lower compared to vehicle-only controls: 13%-20%
[3]; miricorilant 1 mg/kg BID, 2 or 10 mg/kg QD with OLZ, Days 35-57
  Mortality: no mortalities
[3]; oral, all three dose regimens, within first week of treatment (Week 6), maintained
  Effect on olanzapine-induced body weight gains and food consumption increases: completely abrogated
Progesterone receptor
  Affinity for the progesterone receptor: without affinity
[4]; [12]
  % reduction in OLZ-induced increase: HOMA2-IR, Day 8: 38%
  % reduction in OLZ-induced increase: HOMA2-IR, Day 15: 39%
  % reduction in OLZ-induced increase: body weight, Day 8: 25%
  % reduction in OLZ-induced increase: body weight, Day 15: 22%
  % reduction in OLZ-induced increase: insulin, Day 8: 38%
  % reduction in OLZ-induced increase: insulin, Day 15: 39%
  % reduction in OLZ-induced increase: triglycerides, Day 8: 49%
  % reduction in OLZ-induced increase: triglycerides, Day 15: 45%
[4]; OLZ+MIRI vs OLZ+PBO, MMRM, P=0.017, 95% CI [−1.94, −0.19], healthy male subjects
  Difference in weight gain between treatment groups on day 15: -1.07 kg
[4]; OLZ+MIRI vs OLZ+PBO, MMRM, P=0.044, 95% CI [−1.77, −0.02], healthy male subjects
  Difference in weight gain between treatment groups on day 8: -0.9 kg
[4]; OLZ+MIRI vs OLZ+PBO, P<0.001, healthy male subjects
  Difference in triglyceride increase on day 8: -0.53 mmol/L
[4]; OLZ+MIRI vs OLZ+PBO, P=0.007, healthy male subjects
  Difference in HOMA2-IR on day 15: −0.47
[4]; OLZ+MIRI vs OLZ+PBO, P=0.012, healthy male subjects
  Difference in HOMA2-IR on day 8: −0.44
[4]; OLZ+MIRI vs OLZ+PBO, P=0.013, healthy male subjects
  Difference in plasma insulin increase on day 8: −3.49 mIU/L
[4]; OLZ+MIRI vs OLZ+PBO, P=0.057, healthy male subjects
  Difference in triglyceride increase on day 15: -0.28 mmol/L
[4]; [13]
  HOMA2-IR level relative to baseline: less than 2 fold
  Insulin resistance (HOMA2-IR) increase from baseline, percent: about 90%
[4]; [14]
  Body weight increase from baseline on Day 8: 2.6 kg and 2.59 kg
  Body weight increase from baseline on Day 15: 3.9 kg and 3.91 kg
  HOMA2-IR increase from baseline on Day 8: 0.71
  HOMA2-IR increase from baseline on Day 15: 0.74
  Insulin increase from baseline on Day 8: 5.65 mIU/L
  Insulin increase from baseline on Day 15: 5.91 mIU/L
[4]; [15]
  Triglycerides increase from baseline on Day 8: 0.56 mmol/L
  Triglycerides increase from baseline on Day 15: 0.34 mmol/L
[4]; [16]
  Insulin increase from baseline, percent, day 8: about 92%
  Insulin increase from baseline, percent, day 15: 97%
  Triglycerides increase from baseline, percent, day 8: about 60%
  Triglycerides increase from baseline, percent, day 15: 37%
  Body weight increase from baseline, percent of baseline, day 8: about 3.6%
  Body weight increase from baseline, percent of baseline, day 15: 5.4%
[4]; human, in vivo
  ALT increase from baseline, percent, day 7: 152%
  ALT increase from baseline, percent, day 12: 528%
  AST increase from baseline, percent, day 7: 71%
  AST increase from baseline, percent, day 12: 192%
  Difference in ALT levels between treatment arms on day 12: −49.99 IU/L
  Difference in AST levels between groups on day 12: −32.24 IU/L
  Tolerability of the dose: very well tolerated
[4]; printed as between PBO and OLZ, P=0.007, healthy male subjects
  Difference in plasma insulin increase on day 15: 3.74 mIU/L
[5]
  Effect on olanzapine-induced weight gain in rats: prevent olanzapine-induced weight gain

## Cc1cc2c(s1)Nc1ccccc1N=C2N1CCN(C)CC1 [olanzapine, reference compound]
[6]
  Adult patients with triglyceride increases of ≥50 mg/dL at 12 weeks: ~40%
  Adult patients with triglyceride increases of ≥50 mg/dL at 48 weeks: more than 60%
[7]
  HOMA-IR after 8 weeks of olanzapine treatment: 2.6±1.4 mmol/mU·L
[4]; [14]
  Body weight increase from baseline on Day 8: 3.5 kg and 3.49 kg
  Body weight increase from baseline on Day 15: 5.0 kg and 4.99 kg
  HOMA2-IR increase from baseline on Day 8: 1.15
  Insulin increase from baseline on Day 8: 9.14 mIU/L
  Insulin increase from baseline on Day 15: 9.65 mIU/L
[4]; [15]
  Triglycerides increase from baseline on Day 8: 1.09 mmol/L
  Triglycerides increase from baseline on Day 15: 0.62 mmol/L
[4]; [16]
  Insulin increase from baseline, percent, day 15: 127%
  Triglycerides increase from baseline, percent, day 8: 115%
  Triglycerides increase from baseline, percent, day 15: 65%
  Body weight increase from baseline, percent of baseline, day 8: 4.9%
  Body weight increase from baseline, percent of baseline, day 15: 6.9%
[4]; male, human, in vivo, 14 days
  Number of participants who discontinued the study due to elevated liver enzymes: 5
[1]; Allison et al. 2001
  Weight gained after about 40 weeks of administration: 7 to 8 kg

## OCCOCCN1CCN(C2=Nc3ccccc3Sc3ccccc32)CC1 [quetiapine]
[1]; Allison et al. 2001
  Weight gained after treatment for a "short time": about 3 kg

## Cc1nc2n(c(=O)c1CCN1CCC(c3noc4cc(F)ccc34)CC1)CCCC2 [risperidone]
[1]; Allison et al. 2001
  Weight gained over 8-12 weeks: 2 to 3 kg

## O=C1NCCN1CCN1CCC(c2cn(-c3ccc(F)cc3)c3ccc(Cl)cc23)CC1 [sertindole]
[1]
  Mean body weight increase over a period of ten weeks: 2.92 kg
